This is an account of results in ChEMBL document CHEMBL1146304, “Alpha-methyltryptamine sulfonamide derivatives as novel glucocorticoid receptor ligands” (Bioorg Med Chem Lett, 2007).

The species named for test [1] is Homo sapiens. Description: Selectivity for human glucocorticoid receptor over human progesterone receptor.
The target of test [2] is T1, Progesterone receptor (Homo sapiens, UniProt P06401).
T1 sequence (P06401 whole entry): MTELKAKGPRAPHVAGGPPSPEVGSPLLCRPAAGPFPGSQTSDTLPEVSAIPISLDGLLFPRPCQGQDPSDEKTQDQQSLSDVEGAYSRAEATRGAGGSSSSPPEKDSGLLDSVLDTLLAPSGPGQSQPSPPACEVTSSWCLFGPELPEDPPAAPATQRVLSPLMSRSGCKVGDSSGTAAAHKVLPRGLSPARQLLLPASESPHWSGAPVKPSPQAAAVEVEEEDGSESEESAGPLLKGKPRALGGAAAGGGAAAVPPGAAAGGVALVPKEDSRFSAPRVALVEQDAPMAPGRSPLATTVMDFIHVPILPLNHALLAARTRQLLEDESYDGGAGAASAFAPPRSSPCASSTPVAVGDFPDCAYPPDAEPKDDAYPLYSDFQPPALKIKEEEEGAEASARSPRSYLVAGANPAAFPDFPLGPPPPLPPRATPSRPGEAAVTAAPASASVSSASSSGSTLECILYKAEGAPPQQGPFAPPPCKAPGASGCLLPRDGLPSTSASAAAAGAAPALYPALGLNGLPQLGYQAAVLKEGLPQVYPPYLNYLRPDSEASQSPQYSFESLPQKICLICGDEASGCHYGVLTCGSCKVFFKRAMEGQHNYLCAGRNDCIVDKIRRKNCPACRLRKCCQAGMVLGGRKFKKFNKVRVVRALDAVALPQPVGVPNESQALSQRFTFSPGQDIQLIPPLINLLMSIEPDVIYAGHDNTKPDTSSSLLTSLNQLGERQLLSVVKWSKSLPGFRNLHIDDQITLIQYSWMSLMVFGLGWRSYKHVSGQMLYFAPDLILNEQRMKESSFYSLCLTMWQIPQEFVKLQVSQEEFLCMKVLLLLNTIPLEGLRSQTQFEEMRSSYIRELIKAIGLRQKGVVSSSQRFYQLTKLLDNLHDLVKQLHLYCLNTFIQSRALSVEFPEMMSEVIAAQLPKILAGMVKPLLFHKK
In words: Inhibition of human PR.

For test [3], the target named is T2, Mineralocorticoid receptor (Homo sapiens, UniProt P08235).
T2 sequence (P08235 whole entry): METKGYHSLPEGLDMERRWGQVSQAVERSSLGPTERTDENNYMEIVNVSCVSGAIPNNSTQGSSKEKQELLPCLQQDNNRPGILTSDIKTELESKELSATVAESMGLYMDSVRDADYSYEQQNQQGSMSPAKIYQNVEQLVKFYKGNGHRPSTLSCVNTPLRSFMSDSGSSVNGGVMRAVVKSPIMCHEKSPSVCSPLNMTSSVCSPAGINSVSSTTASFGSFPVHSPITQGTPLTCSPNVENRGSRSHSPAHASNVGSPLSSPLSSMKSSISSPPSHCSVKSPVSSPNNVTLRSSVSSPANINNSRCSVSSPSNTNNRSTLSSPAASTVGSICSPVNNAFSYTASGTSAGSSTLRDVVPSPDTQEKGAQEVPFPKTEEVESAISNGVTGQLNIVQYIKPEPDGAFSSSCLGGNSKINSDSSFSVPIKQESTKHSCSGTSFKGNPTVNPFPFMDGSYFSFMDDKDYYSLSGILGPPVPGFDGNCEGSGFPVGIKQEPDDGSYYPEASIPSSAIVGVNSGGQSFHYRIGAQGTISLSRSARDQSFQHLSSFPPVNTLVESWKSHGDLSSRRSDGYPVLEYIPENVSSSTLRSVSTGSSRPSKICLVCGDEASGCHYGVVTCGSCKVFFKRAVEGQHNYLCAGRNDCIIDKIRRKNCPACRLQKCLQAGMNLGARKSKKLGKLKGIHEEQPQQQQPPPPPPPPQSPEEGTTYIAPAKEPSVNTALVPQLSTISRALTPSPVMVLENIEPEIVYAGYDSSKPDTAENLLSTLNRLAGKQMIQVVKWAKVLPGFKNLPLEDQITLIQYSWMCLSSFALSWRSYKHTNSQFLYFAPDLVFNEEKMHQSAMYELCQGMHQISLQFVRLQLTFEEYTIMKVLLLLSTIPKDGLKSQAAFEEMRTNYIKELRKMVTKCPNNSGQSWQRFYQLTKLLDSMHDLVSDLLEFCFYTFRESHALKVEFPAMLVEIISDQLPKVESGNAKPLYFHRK
In words: Inhibition of human MR.

In test [4] the target is T3, Glucocorticoid receptor (Homo sapiens, UniProt P04150).
T3 sequence (P04150 whole entry): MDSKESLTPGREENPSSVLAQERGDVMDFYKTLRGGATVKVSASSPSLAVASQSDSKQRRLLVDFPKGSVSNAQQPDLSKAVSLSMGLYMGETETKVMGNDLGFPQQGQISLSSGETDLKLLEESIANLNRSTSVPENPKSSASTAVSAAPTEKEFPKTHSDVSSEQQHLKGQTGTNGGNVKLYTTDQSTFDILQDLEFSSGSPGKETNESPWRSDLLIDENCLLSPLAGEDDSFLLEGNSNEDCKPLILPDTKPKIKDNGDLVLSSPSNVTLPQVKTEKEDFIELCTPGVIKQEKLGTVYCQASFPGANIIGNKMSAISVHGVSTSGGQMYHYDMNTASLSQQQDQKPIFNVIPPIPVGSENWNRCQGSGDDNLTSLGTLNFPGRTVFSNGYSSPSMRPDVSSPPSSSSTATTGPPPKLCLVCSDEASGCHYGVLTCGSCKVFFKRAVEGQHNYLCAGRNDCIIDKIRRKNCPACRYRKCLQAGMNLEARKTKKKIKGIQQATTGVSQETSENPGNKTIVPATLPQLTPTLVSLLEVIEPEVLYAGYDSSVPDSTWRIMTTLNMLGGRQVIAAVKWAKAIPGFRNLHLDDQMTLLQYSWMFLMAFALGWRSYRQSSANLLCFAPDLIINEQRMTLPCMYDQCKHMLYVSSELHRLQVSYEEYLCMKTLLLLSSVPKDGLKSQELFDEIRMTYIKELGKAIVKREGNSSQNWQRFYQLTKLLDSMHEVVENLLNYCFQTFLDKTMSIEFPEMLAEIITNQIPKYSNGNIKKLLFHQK

The species entered for test [5] is Homo sapiens. Description: Selectivity for human glucocorticoid receptor over human mineralocorticoid receptor.

By IC50 is commonly meant the point on the concentration scale where inhibition reaches its midpoint. As to `CC(Cc1c[nH]c2ccccc12)NS(=O)(=O)c1c(Cl)cc(Cl)cc1Cl` (centres undefined), the Ratio IC50 in test [1] amounted to 8. The IC50 in test [2] is 570 nM; in test [3], 130 nM; in test [4], 64 nM.

For `Cc1cc(C)c(S(=O)(=O)NC(C)Cc2c[nH]c3ccccc23)c(C)c1` (centres undefined), the Ratio IC50 in test [1] stood at 35; in test [5] it was 7. Further, the IC50 came out at 1400 nM in test [2], 290 nM in test [3] and 40 nM in test [4].
